The record followed here is patent publication US9657022B2, “7-OXO-1,6-diazabicyclo[3.2.1]octane derivatives and their use as antibacterial agents” (WOCKHARDT LIMITED, priority 2014, dated 2017).

By MIC is commonly meant the smallest concentration in the dilution series that meets the test's criterion for growth inhibition.

Converted amounts (≈) assume the structure as drawn.

Common to all, as to assay: Antibacterial activity (MIC), agar dilution per CLSI
Assay type in all cases: cell-based
For orientation: In agar dilution the substance is mixed into plates at graded concentrations.

The subject of test [1] is E. coli NCTC 13353 (CTX-M15, OXA-1). The settings on record: Escherichia coli, NCTC13353; E. coli NCTC 13353 (CTX-M15, OXA-1); read-out: MIC. The method, then: (§1) The biological activity of representative compounds according to the invention against various bacterial strains was investigated. In a typical study, overnight grown bacterial cultures were diluted appropriately and inoculated on the agar media containing doubling dilutions of the test compounds. Observations for growth or no growth was performed after 16-20 hours of incubation at 35±2° C. in the ambient air. The overall procedure was performed as per Clinical and Laboratory Standards Institute (CLSI) recommendations, (Clinical and Laboratory Standards Institute (CLSI), Performance Standards for Antimicrobial Susceptibility Testing, 20th Informational Supplement, M07-A9, Volume 32, No. 2, 2012). Molten Mueller Hinton Agar (BD, USA) containing serial dilutions of each antibacterial agent were poured on to the plates and allowed to solidify. Appropriate suspensions from the freshly grown cultures were prepared in normal saline so that about 10^4 CFU/spot of the organism was delivered on to the drug containing agar plates using automated multipoint inoculator (Mast, UK). The plates were incubated in Biochemical oxygen demand (BOD) incubator at 37° C. for 18 hours and then examined for growth.
(§2) The strains selected for study included E. coli NCTC 13353 producing CTX-M15 and OXA-1 beta-lactamase enzymes; K. pneumoniae H521 producing KPC, SHV, TEM beta-lactamase enzymes; and K. pneumoniae S48 producing NDM, SHV, TEM beta-lactamase enzymes. The activities are expressed as Minimum Inhibitory Concentrations (MICs) (mcg/ml).
(§3) The activities are expressed as Minimum Inhibitory Concentrations (MICs) (mcg/ml).

Test [2] deals with K. pneumoniae H521 (KPC, SHV, TEM). The settings on record: Klebsiella pneumoniae; K. pneumoniae H521 (KPC, SHV, TEM); read-out: MIC. The protocol:
as §1, §2, §3

For a further test, the system named is C. frundaii 58 MP. The protocol:
as §1
(§4) Table 3 details the antibacterial activity of representative compound of Formula (I), (2S,5R)-sulfuric acid mono-{2-[N′-(2-(S)-pyrrolidin-2-yl-acetyl)-hydrazinocarbonyl]-7-oxo-1,6-diaza-bicyclo[3.2.1]oct-6-yl}ester (Compound of Example 1), against various Multi Drug Resistant (MDR) Gram-negative bacterial strains. The activities are expressed as Minimum Inhibitory Concentrations (MICs) (mcg/ml).

The test system of another test is P. aeruginosa PAO1. The following applies: Pseudomonas aeruginosa. The method, then: as §1, §4
Another test relates to P. aeruginosa R 20. The following applies: Pseudomonas aeruginosa, R20. The protocol: as §1, §4

For `O=C(C[C@@H]1CCCN1)NNC(=O)[C@@H]1CC[C@@H]2CN1C(=O)N2OS(=O)(=O)O` [Example 1, (2S,5R)-Sulfuric acid mono-{2-[N′-(2-(S)-pyrrolidin-2-yl-acetyl)-hydrazinocarbonyl]-7-oxo-1,6-diaza-bicyclo[3.2.1]oct-6-yl}ester], the MIC in test [1] is 0.5 mg/L (≈ 1.28 µM); in test [2] it was 0.5 mg/L (≈ 1.28 µM); with C. frundaii 58 MP, 0.5 mg/L (≈ 1.28 µM); in the test with P. aeruginosa PAO1, 4 mg/L (≈ 10.2 µM); against P. aeruginosa R 20 it was 16 mg/L (≈ 40.9 µM).
